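A five-concentration, 48-hour dose response in 96-well plates underlies each endpoint, interpolated linearly between surrounding concentrations. GI50 marks 50% less growth. At the TGI there is no net growth.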
Key:
Test in all cases: growth of human tumour cells (NCI), 48 h
786-0 renal = test system: 786-0 renal
A498 renal = test system: A498 renal
A549 NSCLC = test system: A549 NSCLC
ACHN renal = test system: ACHN renal
CAKI-1 renal = test system: CAKI-1 renal
CCRF-CEM leukemia = test system: CCRF-CEM leukemia
COLO 205 colon = test system: COLO 205 colon
DU-145 prostate = test system: DU-145 prostate
EKVX NSCLC = test system: EKVX NSCLC
HCC-2998 colon = test system: HCC-2998 colon
HCT-116 colon = test system: HCT-116 colon
HCT-15 colon = test system: HCT-15 colon
HL-60(TB) leukemia = test system: HL-60(TB) leukemia
HOP-62 NSCLC = test system: HOP-62 NSCLC
HOP-92 NSCLC = test system: HOP-92 NSCLC
HS 578T breast = test system: HS 578T breast
HT29 colon = test system: HT29 colon
IGROV1 ovarian = test system: IGROV1 ovarian
K-562 leukemia = test system: K-562 leukemia
KM12 colon = test system: KM12 colon
LOX IMVI melanoma = test system: LOX IMVI melanoma
M14 melanoma = test system: M14 melanoma
MALME-3M melanoma = test system: MALME-3M melanoma
MCF7 breast = test system: MCF7 breast
MDA-MB-231 breast = test system: MDA-MB-231 breast
MDA-MB-435 = test system: MDA-MB-435
MOLT-4 leukemia = test system: MOLT-4 leukemia
NCI-H226 lung = test system: NCI-H226 lung
NCI-H23 lung = test system: NCI-H23 lung
NCI-H460 lung = test system: NCI-H460 lung
NCI-H522 lung = test system: NCI-H522 lung
NCI/ADR-RES ovarian = test system: NCI/ADR-RES ovarian
OVCAR-3 ovarian = test system: OVCAR-3 ovarian
OVCAR-4 ovarian = test system: OVCAR-4 ovarian
OVCAR-5 ovarian = test system: OVCAR-5 ovarian
OVCAR-8 ovarian = test system: OVCAR-8 ovarian
PC-3 prostate = test system: PC-3 prostate
RPMI-8226 leukemia = test system: RPMI-8226 leukemia
RXF 393 renal = test system: RXF 393 renal
SF-268 CNS = test system: SF-268 CNS
SF-295 CNS = test system: SF-295 CNS
SF-539 CNS = test system: SF-539 CNS
SK-MEL-28 melanoma = test system: SK-MEL-28 melanoma
SK-MEL-5 melanoma = test system: SK-MEL-5 melanoma
SK-OV-3 ovarian = test system: SK-OV-3 ovarian
SN12C renal = test system: SN12C renal
SNB-19 CNS = test system: SNB-19 CNS
SNB-75 CNS = test system: SNB-75 CNS
SR leukemia = test system: SR leukemia
SW-620 colon = test system: SW-620 colon
T-47D breast = test system: T-47D breast
TK-10 renal = test system: TK-10 renal
U251 CNS = test system: U251 CNS
UACC-257 melanoma = test system: UACC-257 melanoma
UACC-62 melanoma = test system: UACC-62 melanoma
UO-31 renal = test system: UO-31 renal

SMILES: Oc1ccc(O)c2c1C1(Cl)C(Cl)=C(Cl)C2(Cl)C1(Cl)Cl
- GI50 (786-0 renal): 7.84 µM
- TGI (786-0 renal): 22.4 µM
- GI50 (A498 renal): 1.83 µM
- TGI (A498 renal): 6.23 µM
- GI50 (A549 NSCLC): 5.89 µM
- TGI (A549 NSCLC): 37.4 µM
- GI50 (ACHN renal): 4.43 µM
- TGI (ACHN renal): 21.3 µM
- GI50 (CAKI-1 renal): 2.44 µM
- TGI (CAKI-1 renal): 8.31 µM
- GI50 (CCRF-CEM leukemia): 4.14 µM
- TGI (CCRF-CEM leukemia): > 100 µM
- GI50 (COLO 205 colon): 11.6 µM
- TGI (COLO 205 colon): 25.4 µM
- GI50 (DU-145 prostate): 3.45 µM
- TGI (DU-145 prostate): 12.9 µM
- GI50 (EKVX NSCLC): 1.47 µM
- TGI (EKVX NSCLC): 7.45 µM
- GI50 (HCC-2998 colon): 8.7 µM
- TGI (HCC-2998 colon): 21.3 µM
- GI50 (HCT-116 colon): 3.07 µM
- TGI (HCT-116 colon): 12.8 µM
- GI50 (HCT-15 colon): 4.15 µM
- TGI (HCT-15 colon): 26.1 µM
- GI50 (HL-60(TB) leukemia): 3.19 µM
- TGI (HL-60(TB) leukemia): 12.1 µM
- GI50 (HOP-62 NSCLC): 8.27 µM
- TGI (HOP-62 NSCLC): 21.2 µM
- GI50 (HOP-92 NSCLC): 1.51 µM
- TGI (HOP-92 NSCLC): 7.13 µM
- GI50 (HS 578T breast): 2.07 µM
- TGI (HS 578T breast): 8.09 µM
- GI50 (HT29 colon): 6.44 µM
- TGI (HT29 colon): 17.9 µM
- GI50 (IGROV1 ovarian): 5.73 µM
- TGI (IGROV1 ovarian): 20.2 µM
- GI50 (K-562 leukemia): 2.94 µM
- TGI (K-562 leukemia): 93 µM
- GI50 (KM12 colon): 2.44 µM
- TGI (KM12 colon): 7.62 µM
- GI50 (LOX IMVI melanoma): 3.18 µM
- TGI (LOX IMVI melanoma): 13.4 µM
- GI50 (M14 melanoma): 3.03 µM
- TGI (M14 melanoma): 12 µM
- GI50 (MALME-3M melanoma): 2.31 µM
- TGI (MALME-3M melanoma): 9.95 µM
- GI50 (MCF7 breast): 6.4 µM
- TGI (MCF7 breast): > 100 µM
- GI50 (MDA-MB-231 breast): 4.65 µM
- TGI (MDA-MB-231 breast): 23 µM
- GI50 (MDA-MB-435): 1.7 µM
- TGI (MDA-MB-435): 4.86 µM
- GI50 (MOLT-4 leukemia): 2.87 µM
- TGI (MOLT-4 leukemia): 19 µM
- GI50 (NCI-H226 lung): 10.7 µM
- TGI (NCI-H226 lung): 41 µM
- GI50 (NCI-H23 lung): 5.17 µM
- TGI (NCI-H23 lung): 22.1 µM
- GI50 (NCI-H460 lung): 2.86 µM
- TGI (NCI-H460 lung): 8.94 µM
- GI50 (NCI-H522 lung): 3.55 µM
- TGI (NCI-H522 lung): 12.1 µM
- GI50 (NCI/ADR-RES ovarian): 3.03 µM
- TGI (NCI/ADR-RES ovarian): 9.53 µM
- GI50 (OVCAR-3 ovarian): 2.03 µM
- TGI (OVCAR-3 ovarian): 5.17 µM
- GI50 (OVCAR-4 ovarian): 8.32 µM
- TGI (OVCAR-4 ovarian): > 100 µM
- GI50 (OVCAR-5 ovarian): 12.6 µM
- TGI (OVCAR-5 ovarian): 33.8 µM
- GI50 (OVCAR-8 ovarian): 10.3 µM
- TGI (OVCAR-8 ovarian): 36.6 µM
- GI50 (PC-3 prostate): 3.14 µM
- TGI (PC-3 prostate): 16.4 µM
- GI50 (RPMI-8226 leukemia): 4.82 µM
- TGI (RPMI-8226 leukemia): 63.3 µM
- GI50 (RXF 393 renal): 3.31 µM
- TGI (RXF 393 renal): 11.2 µM
- GI50 (SF-268 CNS): 3.31 µM
- TGI (SF-268 CNS): 15.5 µM
- GI50 (SF-295 CNS): 1.67 µM
- TGI (SF-295 CNS): 7.2 µM
- GI50 (SF-539 CNS): 4.38 µM
- TGI (SF-539 CNS): 18.7 µM
- GI50 (SK-MEL-28 melanoma): 10.9 µM
- TGI (SK-MEL-28 melanoma): 81 µM
- GI50 (SK-MEL-5 melanoma): 5.09 µM
- TGI (SK-MEL-5 melanoma): 17 µM
- GI50 (SK-OV-3 ovarian): 7.41 µM
- TGI (SK-OV-3 ovarian): 20.4 µM
- GI50 (SN12C renal): 5.29 µM
- TGI (SN12C renal): 22.7 µM
- GI50 (SNB-19 CNS): 9.45 µM
- TGI (SNB-19 CNS): 27.3 µM
- GI50 (SNB-75 CNS): 1.52 µM
- TGI (SNB-75 CNS): 6.84 µM
- GI50 (SR leukemia): 2.65 µM
- TGI (SR leukemia): 24.7 µM
- GI50 (SW-620 colon): 4.89 µM
- TGI (SW-620 colon): 16.7 µM
- GI50 (T-47D breast): 5.19 µM
- TGI (T-47D breast): 24.3 µM
- GI50 (TK-10 renal): 4.96 µM
- TGI (TK-10 renal): 27.7 µM
- GI50 (U251 CNS): 5.76 µM
- TGI (U251 CNS): 20 µM
- GI50 (UACC-257 melanoma): 3.97 µM
- TGI (UACC-257 melanoma): 17.4 µM
- GI50 (UACC-62 melanoma): 4.96 µM
- TGI (UACC-62 melanoma): 19.5 µM
- GI50 (UO-31 renal): 2.43 µM
- TGI (UO-31 renal): 10.6 µM

Source: PubChem BioAssay (NCI)
